# Laboratory results reported in patent US20060167106A1, “Compounds acting at the centrosome” (priority 2004, published 2006).
# “Also recorded” adds a separate entry of the source. Residues, ends and D or L forms follow the SMILES beside them. *: point of attachment. Cbz = O=C(OCc1ccccc1)*
# Experiments:
# CHO-α-tubulin-YFP cells = experiment: α-tubulin-YFP localization in CHO-α-tubulin-YFP cells (fluorescence imaging); assay type: cell-based, Chinese hamster; conditions: for accumulation of tubulin-YFP at the centrosomes: 24 hours; for accumulation of tubulin in the centrosomes (overall statement): CHO-tubulin-YFP cells, concentration and time not given
# Source text: Wild-type Chinese Hamster Ovary cells (WT CHO) cells were maintained in Ham's F-12 medium supplemented with 10% fetal bovine serum (FBS; HyClone, Logan, Utah). Cells of low density (˜20%) growing on 2-well chambered cover-slips (Labtek (Campbell, Calif.) or Fisher Scientific) were transfected with a mammalian expression vector encoding α-tubulin-YFP (Clontech, Palo Alto, Calif.) with the use of FuGENE 6 (Roche Molecular Biochemicals, Indianapolis, Ind.), according to the manufacturer's instructions. Twenty-four hours after transfection, the cells were cultured in 400 μg/ml G418 (Invitrogen, Carlsbad, Calif.)-containing selection medium for 2 weeks. Living cells were examined using a fluorescent microscope for α-tubulin-YFP expression. Cells in single colonies containing microtubules labeled with α-tubulin-YFP were lifted and expanded in G418-containing medium. Expression of α-tubulin-YFP was confirmed by the presence of the tubulin-YFP labeled microtubule pattern identical to immunostained microtubule pattern of non-transfected cells, as well as by subjecting the cells to Western blot analysis using an anti-GFP antibody (Roche Molecular Biochemicals, Basel, Switzerland) and confirming the correct mass of the α-tubulin-YFP chimera protein. Expressed tubulin-YFP was detected as a single band in Western blots. The tubulin-YFP expressing cell lines (referred as CHO-α-tubulin-YFP cells) were used in the studies.
# CHO-α-tubulin-YFP cells were cultured in 2-well chambered cover-slips (Labtek (Campbell, Calif.) or Fisher Scientific) 24 hours before treatment. For comparison of the centrosomal effects of treatment with Compound 1, Compound 1+Taxol, and Taxol, CHO-α-tubulin-YFP cells were treated with Compound 1, Compound 1+Taxol, Taxol, or equivalent concentrations of DMSO-containing media for various time periods before imaging. For comparison of the effects of Compound 1 and known proteasome inhibitors on centrosomes, the nucleus, and perinuclear regions, CHO-α-tubulin-YFP cells were treated with Compound 1, ALLN (Calbiochem, San Diego, Calif.), lactacystin (Calbiochem, San Diego, Calif.) or MG132 (Calbiochem, San Diego, Calif.), and imaged at various time points from 3 hours to 24 hours after treatment.
# Tubulin-YFP fluorescence in living cells or fixed cells was captured using a standard filter for FITC and objectives of 20× or 60× magnification on a Nikon TE300 microscope with a Leica DC50 color digital camera (Leica, Bannockburn, Ill.) or a CoolSnap HQ Monochrome CCD camera (Photonetrics, Tucson, Ariz.). The Leica DC50 and CoolSnapHQ cameras were controlled with Leica DC50 software and MetaVue/MetaMorph software, respectively (Universal Imaging Corp, Downingtown, Pa.).
# CHO-α-tubulin-YFP cells were cultured in 2-well chambered cover-slips (Labtek (Campbell, Calif.) or Fisher Scientific) 24 hours before treatment. For comparison of effects on the centrosome, nucleus, and perinuclear regions, cells were treated with Compound 1 and known proteasome inhibitors including ALLN, MG132, Lactacystin, MG115, clasto-Lactacystin β-Lactone (cLβL), and Epoxomicin (10 μM final concentration for all except ALLN, which was used at 100 μM final concentration) (proteasome inhibitors were from Calbiochem, San Diego, Calif.) and imaged at various time points up to 24 hours during treatment.
# Tubulin-YFP fluorescence in living cells or fixed cells was captured using a standard filter for FITC and objectives of 20× or 60× magnification on the Nikon TE300 microscope/digital imaging system.
# [1] = tested on: MDA-435 breast cancer cells; experiment: Multi-ubiquitin Western blotting in MDA-435 cells; assay type: cell-based; conditions: for increase of ubiquitinated proteins of the cell lysates: 500 nM
# Protocol: Louis, Mo.) immediately before use, on ice for 1 hour. After scraping, the lysates were cleared by centrifugation at 13,000 RPM for 10 minutes at 4° C. Protein content was determined using a Bradford assay and bovine serum albumin as a standard (Bio-Rad Laboratories, Hercules, Calif.). Samples were solubilized by boiling in SDS sample buffer and subjected to SDS-PAGE. The proteins were subsequently transferred to a PVDF membrane (Bio-Rad, Hercules, Calif.). […] The alkaline phosphatase-conjugated secondary antibodies (Invitrogen, Carlsbad, Calif.) were diluted in blocking buffer and incubated with the blot for 1 hour at room temperature. The secondary antibodies were detected by the Western Breeze Chemiluminescent Kit (Invitrogen, Carlsbad, Calif.) and imaged using a Kodak 440 Image Station. Proteins targeted for degradation by the ubiquitin-dependent proteolytic pathway are tagged with multi-ubiquitin molecules. […] In this assay, accumulation of multi-ubiquitinated proteins in the cells is indicative of the impairment of proteasome activity.
# Hsp70 = Hsp70 Western blotting in MDA-435 cells; assay type: cell-based; conditions: 0.5 μM; for percentage change in Hsp70 expression relative to DMSO control: normalized to background and GAPDH
# Protocol: Calculations of the percentage changes were made by using the automated band analysis tools of the Kodak 1D (v.3.6.3) program. Band intensities were normalized to background and GAPDH.
# MDA-435 breast cancer cells were grown in 100 mm plastic-tissue culture dishes and treated for 6 and 24 hours with 0.5 μM Taxol, Compound 1, Taxol+Compound 1, MG132, ALLN, or DMSO. After treatment, cells were washed in PBS and cell lysates were prepared by adding 100 μL of lysis buffer, which contained 20 mM Tris-HCl (pH 7.5), 150 mM NaCl, 1 mM Na2EDTA, 1 mM EGTA, 1% Triton, 2.5 mM sodium pyrophosphate, 1 mM β-glycerophosphate, 1 mM Na3VO4 and 1 μg/ml leupeptin (Cell Signaling Technology, Beverly, Mass.) supplemented with 1 mM PMSF (Sigma, St. Louis, Mo.) immediately before use, on ice for 1 hour. After scraping, the lysates were cleared by centrifugation at 13,000 RPM for 10 minutes at 4° C. Protein content was determined using a Bradford assay and bovine serum albumin as a standard (Bio-Rad Laboratories, Hercules, Calif.). Samples were solubilized by boiling in SDS sample buffer and subjected to SDS-PAGE. The proteins were subsequently transferred to a PVDF membrane (Bio-Rad, Hercules, Calif.). After blocking with 5% nonfat milk in TBS for 1 hour, the blots were incubated with a mouse monoclonal anti-Hsp70 antibody, which is specific for the inducible form of Hsp70 (Clone C92F3A-5, 1:1000 dilution, Stressgen Biotechnologies Corp., Victoria, B.C., Canada) or a rabbit polyclonal anti-GAPDH antibody (1:2000 dilution, Abcam, Cambridge, Mass.) for 2 hours at room temperature. The horseradish-peroxidase-conjugated secondary antibodies, anti-mouse horse radish peroxidase, (1:2000, Bio-Rad, Hercules, Calif.) and goat anti-rabbit polyclonal horse radish peroxidase (1:2000, Abcam, Cambridge, Mass.)) were diluted in blocking buffer and incubated with the blot for 1 hour at room temperature. The secondary antibodies were detected by enhanced chemiluminescence (ECL, Amersham Biosciences, Piscataway, N.J.) and imaged using a Kodak 440 Image Station.
# [2] = biological target: T1, bovine red blood cell 20S proteasome (Bos taurus, UniProt Q32KL2); experiment: 20S Proteasome Assay (in vitro, Suc-Leu-Val-Tyr-AMC); assay type: biochemical; conditions: isolated 20S proteasome
# T1 construct: bovine red blood cell 20S proteasome; purchased Calbiochem; host or cells: purified from bovine red blood cells
# Protocol: 190 μl of reaction buffer (500 mM HEPES, 10 nM EDTA, pH 7.6), containing 0.03% SDS was pre-incubated for 5 minutes at 37° C. in the presence of 0.2 μg of bovine red blood cell 20S proteasome (Calbiochem, San Diego, Calif.) for temperature equilibration. Subsequently, inhibitors or Compound 1 were added to the reaction mixture at a final DMSO concentration of 0.5%. The reaction was initiated by adding 10 μl of the peptide-AMC substrate (Calbiochem, San Diego, Calif.) to each well. The emitted fluorescence was then measured every third minute at 37° C. for 90 minutes by a fluorescence plate reader (FlexStation II, Molecular Devices, Sunnyvale, Calif.) at 460 nm (λex360 nm) wavelength.
# The buffers and reagents for the assay were purchased from Calbiochem (20S Proteasome Assay Kit; Calbiochem, San Diego, Calif.). The principle of the assay is that the release of free AMC (7-Amino-4-methylcoumarin) following degradation of the substrate results in a fluorescent signal that is a measure of proteasome activity. The quantitative analysis of 20S proteasome activity was assayed as described.
# CHO cells = experiment: Cell morphology, simultaneous time-lapse imaging of CHO cells; assay type: cell-based, Chinese hamster
# Protocol: CV-1 cells and CHO cells were previously cultured in 2-well chambered cover-slips for 48 hours and incubated in 15 mM HEPES buffer-containing Ham's F-12/DMEM medium with different compounds. The cells were imaged using phase contrast settings with the Nikon TE300 microscope/digital imaging system. The cells were imaged ‘simultaneously’ under control of MetaVue software by capturing frames for cells from different conditions at the same time period using a motorized automated XYZ stage.
# To track the effect of Compound 1 on live cells, non-transfected CV-1 cells with were treated with 500 nM Compound 1 and phase contrast time-lapse images were taken every 10 seconds. […] A very low concentration of Taxol (10 nM) was used.
# 26S proteasome = experiment: Proteasome-sensor cells (HEK-293, GFP chimera), fluorescence imaging; assay type: cell-based; conditions: HEK-293, 100 nM, 24 hours
# Source text: Specifically, the proteasome-sensor cells are HEK-293 cells stably transfected with a vector (proteasome-sensor vector) that encodes naturally-occurring reef coral Zoanthus sp. green fluorescent protein (GFP) fused to a specific degradation motif that targets the fusion protein for removal by the 26S proteasome. The background fluorescence observed in normal cells with active proteasomes is low. When proteasomes are inhibited, the fluorescent protein quickly accumulates. […] Millennium Pharmaceuticals, Inc., Cambridge, Mass.). […] Velcade (Millennium Pharmaceuticals Inc.) was used as a positive control in this assay (at 5 nM, 50 nM, 500 nM or 5 μM). Velcade stock solution was prepared according to the manufacturer's instructions. GFP fluorescence of the cells was imaged at various time points using a standard filter for FITC with the Nikon TE300 microscope/digital imaging system described herein.
SMILES,"accumulation of α-tubulin-YFP at the centrosomes (CHO-α-tubulin-YFP cells; CHO cells, 10 μM, 5 hours)","accumulation of α-tubulin-YFP in the nucleus (CHO-α-tubulin-YFP cells; CHO cells, 10 μM, 8 hours post-treatment)","accumulation of tubulin-YFP at the centrosomes (CHO-α-tubulin-YFP cells; CHO cells, 10 μM)",accumulation of tubulin in the centrosomes (overall statement) (CHO-α-tubulin-YFP cells),"accumulation of tubulin at the centrosomes versus in the nucleus (overall statement) (CHO-α-tubulin-YFP cells; cells treated, concentration not given)",increase of ubiquitinated proteins of the cell lysates ([1]; 6 hours of treatment in cell culture),increase of ubiquitinated proteins of the cell lysates ([1]; 24 hours of treatment in cell culture),"accumulation of multi-ubiquitinated proteins ([1]; MDA-435 cells, 0.5 μM, 6 and 24 hours)",induction of Hsp70 expression (Hsp70; 6 and 24 hours),percentage change in Hsp70 expression relative to DMSO control (Hsp70; 6 hours of treatment),percentage change in Hsp70 expression relative to DMSO control (Hsp70; 24 hours of treatment),proteasome inhibitory activity in vitro (overall statement) [2],proteasome activity in vitro ([2]; 5 nM),"effect on cell morphology (CHO cells; CHO cells, 10 nM, up to 210 minutes)","cell death (CHO cells; cells, after a certain period of treatment)","accumulation of tubulin-YFP at the centrosomes (CHO-α-tubulin-YFP cells; CHO cells, 0.1 μM)",accumulation of proteasome-sensor protein in cells (26S proteasome)
CC(C)C[C@@H](C=O)NC(=O)[C@H](CC(C)C)NC(=O)[C@H](CC(C)C)NC(=O)OCc1ccccc1 [MG132] (Cbz-Leu-Leu-Leu-aldehyde),accumulation of α-tubulin-YFP at the centrosomes and perinuclear regions,accumulation of α-tubulin-YFP in the nucleus; also recorded: caused the accumulation of YFP-tubulin in the nucleus,accumulation of tubulin-YFP at the centrosomes,caused accumulation of tubulin-YFP at the centrosomes and in the perinuclear region,both accumulation of tubulin at the centrosomes and in the nucleus,212.58,357.82,caused similar accumulation of multi-ubiquitinated proteins,"not as potent an inducer as Compound 1; also recorded: also induced Hsp70 expression after 6 and 24 hours of treatment, but did so less potently than Compound 1 or Compound 1+Taxol",472%,3016%,exhibited proteasome inhibitory activity,detectable decrease in proteasome activity,,,,
CC(=O)O[C@H]1C(=O)[C@@]2(C)[C@H]([C@H](OC(=O)c3ccccc3)[C@]3(O)C[C@H](OC(=O)[C@H](O)[C@@H](NC(=O)c4ccccc4)c4ccccc4)C(C)=C1C3(C)C)[C@]1(OC(C)=O)CO[C@@H]1C[C@@H]2O [Taxol],,,,no such effect,,,,,,86%,556%,,,did not cause significant cell morphological changes,cause cell death after a certain period of treatment,lack of accumulation of tubulin-YFP at the centrosomes,lack of proteasome-sensor protein in cells
